Common to all, as to assay type: cell-based
Assay [1] relates to renal carcinoma cells (786-O). Nature of the assay: In vitro potency (CellTiter-Glo, 96 h) on 786-O. To be noted: Homo sapiens, 786-0, 96 h, read-out: 786-O IC50. The method in brief:
(§1)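 […] are titrated onto log-phase cells pre-seeded for 24 h in RPMI 1640 supplemented with 20% FBS. Growth inhibition comes from luminescence.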
For orientation: In ATP-based viability assays light output follows the ATP content of the culture.

In assay [2] the test system is Hodgkin's lymphoma cells (L540cy). Nature of the assay: In vitro potency (CellTiter-Glo, 96 h) on L540cy. To be noted: L540cy, 96 h, read-out: L540cy IC50. The method in brief: as §1
Assay [3] deals with breast cancer cells (MDA-MB-231). Nature of the assay: In vitro potency (CellTiter-Glo, 96 h) on MDA-MB-231. As to conditions: Homo sapiens, MDA-MB-231, 96 h, read-out: MDAMB 231 IC50. Summed up:
as §1

The subject of assay [4] is pancreatic cancer cells (BxPC3). Nature of the assay: In vitro potency (CellTiter-Glo, 96 h) on BxPC3. To be noted: Homo sapiens, BXPC-3, 96 h, read-out: BxPC3 IC50. Summed up: as §1
The test system of assay [5] is B-lymphocyte cancer cells (SU-DHL4). As to the kind of experiment: In vitro potency (CellTiter-Glo, 96 h) on SU-DHL4. To be noted: Homo sapiens, SU-DHL-4, 96 h, read-out: SU-DHL-4 IC50. Summed up: as §1
For assay [6], the system named is acute myeloid leukemia cells (MOLM-13). As to the kind of experiment: In vitro potency (CellTiter-Glo, 96 h) on MOLM-13. As to conditions: Homo sapiens, MOLM-13, 96 h, read-out: MOLM-13 IC50. Summed up: as §1
For assay [7], the system named is anaplastic large cell lymphoma cells (Karpas299). Nature of the assay: In vitro potency (CellTiter-Glo, 96 h) on Karpas299. As to conditions: Homo sapiens, KARPAS-299, 96 h, read-out: Karpas299 IC50. The method in brief:
as §1

Assay [8] is described as follows: In vitro potency (CellTiter-Glo, 96 h) on Ls174T. To be noted: Homo sapiens, LS174T, read-out: Ls174T IC50. The method in brief:
as §1

In assay [9] the test system is anaplastic large cell lymphoma cells (DEL). As to the kind of experiment: In vitro potency (CellTiter-Glo, 96 h) on DEL. To be noted: 96 h, read-out: DEL IC50. Summed up:
as §1

Assay [10] has as its system non-small-cell lung cancer cells (Calu1). As to the kind of experiment: In vitro potency (CellTiter-Glo, 96 h) on Calu1. As to conditions: Homo sapiens, Calu-1, 96 h, read-out: Calu1 IC50. Summed up:
as §1

Assay [11] deals with anaplastic large cell lymphoma cells (DELBVR). Nature of the assay: In vitro potency (CellTiter-Glo, 96 h) on DELBVR. To be noted: 96 h, read-out: DELBVR IC50. Summed up: as §1
The test system of a further assay is melanoma cells (A2058). As to the kind of experiment: In vitro potency (CellTiter-Glo, 96 h) on A2058. To be noted: Homo sapiens, A2058, 96 h, read-out: A2058 IC50. The method in brief: as §1
Where [12] appears, read: CPT free drugs, CellTiter-Glo after 96 h exposure.

Like-named read-outs stand apart in the source and are kept apart here. Some results are limits rather than exact numbers.

By IC50 is commonly meant the concentration at which inhibition is half-maximal.

Regarding `CC[C@@]1(O)C(=O)OCc2c1cc1n(c2=O)Cc2c-1nc1cc(F)c(C)c(C3=CCN(C(C)=O)CC3)c1c2CN` [Compound 6k], the IC50 in [1] (setting [12]) was found to be 0.08 µM; in assay [2] (setting [12]), 0.016 µM; in assay [3] (setting [12]), 0.368 µM; in assay [4] (setting [12]), 0.095 µM; in assay [5] (setting [12]), 0.021 µM; in [6] (setting [12]), 0.013 µM. The IC50 in [7] (setting [12]) came out at 0.04 µM; in assay [8] (setting [12]), 0.046 µM; in assay [9] (setting [12]), 0.007 µM; in assay [10] (setting [12]) it was 0.17 µM; in [11] (setting [12]) it was 0.011 µM; in the assay on melanoma cells (A2058) (setting [12]), 0.017 µM.
With `CC[C@@]1(O)C(=O)OCc2c1cc1n(c2=O)Cc2c-1nc1cccc(OC)c1c2CN` [Compound 5a], the IC50 amounted to 0.056 µM in assay [1] (setting [12]); 0.02 µM in assay [2] (setting [12]); 0.35 µM in assay [3] (setting [12]); 0.154 µM in [4] (setting [12]); 0.012 µM in assay [5] (setting [12]); 0.073 µM in assay [6] (setting [12]). Besides, the IC50 was 0.028 µM in [7] (setting [12]); over 1 µM in [8] (setting [12]); 0.007 µM in assay [9] (setting [12]); 0.389 µM in assay [10] (setting [12]); 0.01 µM in assay [11] (setting [12]); 0.016 µM in the assay with melanoma cells (A2058) (setting [12]).
For `CC[C@@]1(O)C(=O)OCc2c1cc1n(c2=O)Cc2c-1nc1cc3c(cc1c2Cn1cnc(CO)c1)OCO3` [Compound 7aj], the IC50 stood at 0.099 µM in [1]; 0.056 µM in [2]; 0.706 µM in [3]; 0.103 µM in assay [4]; 0.034 µM in assay [5]; 0.081 µM in assay [6]. Besides, the IC50 in assay [7] is 0.055 µM; in [8] (96 h), 0.064 µM; in assay [9], 0.014 µM; in [10] it was over 1 µM; in assay [11], 0.016 µM; in the assay with melanoma cells (A2058), 0.057 µM.

The values are drawn from patent US20230381321A1, “CAMPTOTHECIN CONJUGATES” (priority 2022, published 2023).
